Target: T1, human MC2R (Homo sapiens, UniProt Q01718)
T1 construct: host or cells: GeneBLAzer MC2R-CRE-bla CHO-K1 cells
Assay: Measurement of human MC2R inhibitory activity using intracellular cAMP concentration as an indicator
Assay type: cell-based
Conditions: test compound at 1 µM; GeneBLAzer MC2R-CRE-bla CHO-K1 cells; ACTH (Human 1-24) final concentration 3 pM; intracellular cAMP by HTRF; read-out: MC2R inhibition rate (% of inhibition)
Protocol: Experimental Example 1: Measurement of human MC2R inhibitory activity using intracellular cAMP concentration as an indicator
GeneBLAzer MC2R-CRE-bla CHO-K1 cells (Thermo Fisher Scientific) that had been cryopreserved in advance were thawed and suspended in a medium [Dulbecco's Modified Eagle Medium (Thermo Fisher Scientific) containing fetal bovine serum (10% (v/v), HyClone Laboratories), Non-Essential Amino Acids Solution (1/100 (w/w), Thermo Fisher Scientific), HEPES (25 mM, Thermo Fisher Scientific), Penicillin/Streptomycin (1/100 (w/w), Fujifilm Wako)]. After centrifuging the cell suspension, the supernatant was removed, the cells were suspended in D-PBS(-) (Fujifilm Wako), and the supernatant was removed again after centrifugation. The cells were resuspended in an assay buffer [Hank's Balanced Salt Solution (Thermo Fisher Scientific) containing HEPES pH 7.5 (10 mM, Thermo Fisher Scientific), fatty acid-free bovine serum albumin (0.01% (w/v), Sigma), IBMX (500 µM, Fujifilm Wako)] and added to a 384-well white plate (Greiner) at 1,500 cells/well. Then, the test compound prepared using the assay buffer was added, and after standing for 20 min, an assay buffer containing ACTH (Human 1-24) (Peptide Institute) was added (ACTH final concentration, 3 pM). After standing at room temperature for 30 min, the intracellular cAMP level was measured using cAMP Gs HiRange kit HTRF (PerkinElmer). The inhibition rate (%) of the compound against MC2R was calculated using the following formula. Inhibition rate (%) = […] [formula] • A: cAMP concentration calculated from wells containing 3 pM ACTH (1-24) • B: cAMP concentration calculated from wells without addition of 3 pM ACTH (1-24) • C: cAMP concentration calculated from wells containing 3 pM ACTH (1-24) and test compound at concentration determined in advance

T1 sequence (Q01718 whole entry): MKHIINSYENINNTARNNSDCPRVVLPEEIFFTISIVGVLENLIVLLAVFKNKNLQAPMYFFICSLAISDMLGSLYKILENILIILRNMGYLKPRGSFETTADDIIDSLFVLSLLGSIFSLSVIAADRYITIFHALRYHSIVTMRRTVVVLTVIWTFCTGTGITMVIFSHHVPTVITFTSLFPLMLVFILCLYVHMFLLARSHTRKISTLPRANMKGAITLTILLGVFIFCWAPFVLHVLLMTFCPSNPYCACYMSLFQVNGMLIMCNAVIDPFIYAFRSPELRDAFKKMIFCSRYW
T1 sequence (Q8TCY5 whole entry partner): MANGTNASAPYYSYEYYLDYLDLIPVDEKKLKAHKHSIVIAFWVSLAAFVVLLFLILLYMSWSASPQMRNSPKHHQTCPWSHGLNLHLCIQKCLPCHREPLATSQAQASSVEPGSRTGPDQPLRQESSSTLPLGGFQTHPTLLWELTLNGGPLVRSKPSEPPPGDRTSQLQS

| inhibition at 1 µM [%] | Compound |
| --- | --- |
| 100 | CCOc1ncccc1-c1ccc(N2CCN3C(=O)N(c4ccc(Cl)cc4C(F)(F)F)CC3C2)c(C=O)n1 (centres unmarked) [Example 1, 3-[2-[4-chloro-2-(trifluoromethyl)phenyl]-3-oxo-5,6,8,8a-tetrahydro-1H-imidazo[1,5-a]pyrazin-7-yl]-6-(2-ethoxypyridin-3-yl)pyridine-2-carbaldehyde] |
| 99 | CCOc1ncccc1-c1ccc(N2CCN3C(=O)N(c4ccc(Cl)cc4C(F)(F)F)CC3C2)c(C(N)=O)n1 (centres unmarked) [Example 2, 3-[2-[4-chloro-2-(trifluoromethyl)phenyl]-3-oxo-5,6,8,8a-tetrahydro-1H-imidazo[1,5-a]pyrazin-7-yl]-6-(2-ethoxypyridin-3-yl)pyridine-2-carboxamide] |
| 91 | CCOc1ncccc1-c1ccc(N2CCN3C(=O)N(c4ccc(Cl)cc4C(F)(F)F)C[C@H]3C2)c(C=O)n1 [Example 7, 3-[(8aR)-2-[4-chloro-2-(trifluoromethyl)phenyl]-3-oxo-5,6,8,8a-tetrahydro-1H-imidazo[1,5-a]pyrazin-7-yl]-6-(2-ethoxypyridin-3-yl)pyridine-2-carbaldehyde] |
| 90 | CCOc1ncccc1-c1ccc(N2CCN3C(=O)N(c4ccc(Cl)cc4C(F)(F)F)C[C@H]3C2)c(C(=O)NCCN(C)C)n1 [Example 8, 3-[(8aR)-2-[4-chloro-2-(trifluoromethyl)phenyl]-3-oxo-5,6,8,8a-tetrahydro-1H-imidazo[1,5-a]pyrazin-7-yl]-N-[2-(dimethylamino)ethyl]-6-(2-ethoxypyridin-3-yl)pyridine-2-carboxamide] |
| 100 | CCOc1ncccc1-c1ccc(N2C[C@H]3CN(c4ccc(Cl)cc4C(F)(F)F)C(=O)N3C[C@H]2CC)c(C=O)n1 [Example 10, 3-[(6R,8aS)-2-[4-chloro-2-(trifluoromethyl)phenyl]-6-ethyl-3-oxo-5,6,8,8a-tetrahydro-1H-imidazo[1,5-a]pyrazin-7-yl]-6-(2-ethoxypyridin-3-yl)pyridine-2-carbaldehyde] |
| 97 | CCOc1ncccc1-c1ccc(N2CCN3C(=O)N(c4ccc(Cl)cc4C(F)(F)F)C[C@@H]3C2)c(C(=O)NCC2CCOCC2)n1 [Example 11, 3-[(8aS)-2-[4-chloro-2-(trifluoromethyl)phenyl]-3-oxo-5,6,8,8a-tetrahydro-1H-imidazo[1,5-a]pyrazin-7-yl]-6-(2-ethoxypyridin-3-yl)-N-(oxan-4-ylmethyl)pyridine-2-carboxamide] |
| 100 | CCOc1ncccc1-c1ccc(N2CCN3C(=O)N(c4ccc(Cl)cc4C(F)(F)F)C[C@@H]3C2)c(C(=O)NCCOC)n1 [Example 12, 3-[(8aS)-2-[4-chloro-2-(trifluoromethyl)phenyl]-3-oxo-5,6,8,8a-tetrahydro-1H-imidazo[1,5-a]pyrazin-7-yl]-6-(2-ethoxypyridin-3-yl)-N-(2-methoxyethyl)pyridine-2-carboxamide] |
| 91 | CCOc1ncccc1-c1ccc(N2CCN3C(=O)N(c4ccc(Cl)cc4C(F)(F)F)C[C@@H]3C2)c(C(=O)NC2CCN(C(=O)OC(C)(C)C)C2)n1 (stereo partly drawn) [Example 17, tert-butyl 3-[[3-[(8aS)-2-[4-chloro-2-(trifluoromethyl)phenyl]-3-oxo-5,6,8,8a-tetrahydro-1H-imidazo[1,5-a]pyrazin-7-yl]-6-(2-ethoxypyridin-3-yl)pyridine-2-carbonyl]amino]pyrrolidine-1-carboxylate] |

The next lines start with the molecule.

| Compound | inhibition at 1 µM [%] |
| --- | --- |
| CCOc1ncccc1-c1ccc(N2CCN3C(=O)N(C4(C(F)(F)F)CCCC4)CC3C2)c(C(N)=O)n1 (centres unmarked) [Example 3, 6-(2-ethoxypyridin-3-yl)-3-[3-oxo-2-[1-(trifluoromethyl)cyclopentyl]-5,6,8,8a-tetrahydro-1H-imidazo[1,5-a]pyrazin-7-yl]pyridine-2-carboxamide] | 81 |
| CCOc1ncccc1-c1ccc(N2CCN3C(=O)N(c4ccc(Cl)cc4C(F)(F)F)CC3C2)c(C(=O)NCCN(C)C)n1 (centres unmarked) [Example 4, 3-[2-[4-chloro-2-(trifluoromethyl)phenyl]-3-oxo-5,6,8,8a-tetrahydro-1H-imidazo[1,5-a]pyrazin-7-yl]-N-[2-(dimethylamino)ethyl]-6-(2-ethoxypyridin-3-yl)pyridine-2-carboxamide] | 100 |
| CCOc1ncccc1-c1ccc(N2CCN3C(=O)N(c4ccc(Cl)cc4C(F)(F)F)C[C@@H]3C2)c(C=O)n1 [Example 5, 3-[(8aS)-2-[4-chloro-2-(trifluoromethyl)phenyl]-3-oxo-5,6,8,8a-tetrahydro-1H-imidazo[1,5-a]pyrazin-7-yl]-6-(2-ethoxypyridin-3-yl)pyridine-2-carbaldehyde] | 100 |
| CCOc1ncccc1-c1ccc(N2CCN3C(=O)N(c4ccc(Cl)cc4C(F)(F)F)C[C@@H]3C2)c(C(=O)NCCN(C)C)n1 [Example 6, 3-[(8aS)-2-[4-chloro-2-(trifluoromethyl)phenyl]-3-oxo-5,6,8,8a-tetrahydro-1H-imidazo[1,5-a]pyrazin-7-yl]-N-[2-(dimethylamino)ethyl]-6-(2-ethoxypyridin-3-yl)pyridine-2-carboxamide] | 100 |
| CCOc1ncccc1-c1ccc(N2CCN3C(=O)N(c4ccc(Cl)cc4C(F)(F)F)CC3(C)C2)c(C=O)n1 (centres unmarked) [Example 9, 3-[2-[4-chloro-2-(trifluoromethyl)phenyl]-8a-methyl-3-oxo-1,5,6,8-tetrahydroimidazo[1,5-a]pyrazin-7-yl]-6-(2-ethoxypyridin-3-yl)pyridine-2-carbaldehyde] | 99 |
| CCOc1ncccc1-c1ccc(N2CCN3C(=O)N(c4ccc(Cl)cc4C(F)(F)F)C[C@@H]3C2)c(C(=O)NCCC2CCOCC2)n1 [Example 13, 3-[(8aS)-2-[4-chloro-2-(trifluoromethyl)phenyl]-3-oxo-5,6,8,8a-tetrahydro-1H-imidazo[1,5-a]pyrazin-7-yl]-6-(2-ethoxypyridin-3-yl)-N-[2-(oxan-4-yl)ethyl]pyridine-2-carboxamide] | 99 |
| CCOc1ncccc1-c1ccc(N2CCN3C(=O)N(c4ccc(Cl)cc4C(F)(F)F)C[C@@H]3C2)c(C(=O)NCCCc2ccccn2)n1 [Example 14, 3-[(8aS)-2-[4-chloro-2-(trifluoromethyl)phenyl]-3-oxo-5,6,8,8a-tetrahydro-1H-imidazo[1,5-a]pyrazin-7-yl]-6-(2-ethoxypyridin-3-yl)-N-(3-pyridin-2-ylpropyl)pyridine-2-carboxamide] | 100 |
| CCOc1ncccc1-c1ccc(N2CCN3C(=O)N(c4ccc(Cl)cc4C(F)(F)F)C[C@@H]3C2)c(C(=O)NCC2(O)COC2)n1 [Example 15, 3-[(8aS)-2-[4-chloro-2-(trifluoromethyl)phenyl]-3-oxo-5,6,8,8a-tetrahydro-1H-imidazo[1,5-a]pyrazin-7-yl]-6-(2-ethoxypyridin-3-yl)-N-[(3-hydroxyoxetan-3-yl)methyl]pyridine-2-carboxamide] | 100 |
| CCOc1ncccc1-c1ccc(N2CCN3C(=O)N(c4ccc(Cl)cc4C(F)(F)F)C[C@@H]3C2)c(C(=O)NCC2(O)CC2)n1 [Example 16, 3-[(8aS)-2-[4-chloro-2-(trifluoromethyl)phenyl]-3-oxo-5,6,8,8a-tetrahydro-1H-imidazo[1,5-a]pyrazin-7-yl]-6-(2-ethoxypyridin-3-yl)-N-[(1-hydroxycyclopropyl)methyl]pyridine-2-carboxamide] | 100 |

— EP4714953A1, “MELANOCORTIN 2-TYPE RECEPTOR ANTAGONIST” (Scohia Pharma, Inc., priority 2023, dated 2024)
